Numbers after ± are expanded uncertainties.
Legend:
[1] = mn = molality of the nth substance listed, in mol/kg; settings: 101 kPa, Liquid; for speed of sound: Frequency=1.999 MHz, Sing-around technique in a fixed-path interferometer; for mass density: Vibrating tube method
[2] = 101 kPa, Liquid, Frequency=1.999 MHz, Sing-around technique in a fixed-path interferometer

Row | speed of sound ([1]; 288.15 K, m1 = 0.3) [m/s] | mass density ([1]; 288.15 K, m1 = 0.3) [kg/m3] | speed of sound ([1]; 293.15 K, m1 = 0.3) [m/s] | mass density ([1]; 293.15 K, m1 = 0.3) [kg/m3] | speed of sound ([1]; 298.15 K, m1 = 0.3) [m/s] | speed of sound ([1]; 303.15 K, m1 = 0.3) [m/s] | mass density ([1]; 303.15 K, m1 = 0.3) [kg/m3] | speed of sound ([1]; 308.15 K, m1 = 0.3) [m/s] | speed of sound ([1]; 313.15 K, m1 = 0.3) [m/s] | mass density ([1]; 313.15 K, m1 = 0.3) [kg/m3] | speed of sound ([1]; 318.15 K, m1 = 0.3) [m/s] | mass density ([1]; 318.15 K, m1 = 0.3) [kg/m3] | mass density ([1]; 298.15 K, m1 = 0.3) [kg/m3] | mass density ([1]; 308.15 K, m1 = 0.3) [kg/m3] | speed of sound ([2]; 298.15 K) [m/s] | speed of sound ([2]; 308.15 K) [m/s] | speed of sound ([2]; 313.15 K) [m/s] | speed of sound ([1]; 298.15 K, m2 = 0) [m/s] | speed of sound ([1]; 308.15 K, m2 = 0) [m/s] | speed of sound ([1]; 313.15 K, m2 = 0) [m/s] | Compound
1 | 1510.3 ± 10 | 1024.7 ± 2 | 1518.6 ± 10 | 1022.7 ± 2 | 1529.1 ± 10 | 1540 ± 10 | 1019.2 ± 2 | 1551.9 ± 10 | 1563 ± 10 | 1014.9 ± 2 | 1573.4 ± 10 | 1012.6 ± 2 | – | – | – | – | – | – | – | – | [Cl-].[Cl-].[Mg+2] [magnesium chloride] + O
2 | 1482.9 ± 10 | 1019.9 ± 2 | 1500.8 ± 10 | 1018.1 ± 2 | 1518.4 ± 10 | 1537.8 ± 10 | 1013.5 ± 2 | 1548.6 ± 10 | 1558.8 ± 10 | 1006.1 ± 2 | 1568 ± 10 | 1003.4 ± 2 | 1016.9 ± 2 | 1008.5 ± 2 | – | – | – | – | – | – | [Cl-].[K+] [potassium chloride] + O
3 | – | – | – | – | – | – | – | – | – | – | – | – | – | – | 1496.5 ± 10 | 1519.4 ± 10 | 1528.9 ± 10 | – | – | – | O [water]
4 | – | – | – | – | – | – | – | – | – | – | – | – | – | – | – | – | – | 1496.5 ± 10 | 1519.4 ± 10 | 1528.9 ± 10 | O [water] + C[N+](C)(C)CC(=O)[O-]

Reference: the NIST ThermoML archive (doi:10.1016/j.tca.2013.08.002)
